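Compound exposure: 48 hours, 5 concentrations, 96-well plates. TGI: total growth inhibition.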
What was measured:
Assay in all cases: DTP human tumour cell line panel, 48 h
786-0 renal = system: 786-0 renal
A498 renal = system: A498 renal
A549 NSCLC = system: A549 NSCLC
ACHN renal = system: ACHN renal
BT-549 breast = system: BT-549 breast
CAKI-1 renal = system: CAKI-1 renal
CCRF-CEM leukemia = system: CCRF-CEM leukemia
COLO 205 colon = system: COLO 205 colon
DU-145 prostate = system: DU-145 prostate
EKVX NSCLC = system: EKVX NSCLC
HCC-2998 colon = system: HCC-2998 colon
HCT-15 colon = system: HCT-15 colon
HL-60(TB) leukemia = system: HL-60(TB) leukemia
HOP-92 NSCLC = system: HOP-92 NSCLC
HS 578T breast = system: HS 578T breast
IGROV1 ovarian = system: IGROV1 ovarian
K-562 leukemia = system: K-562 leukemia
KM12 colon = system: KM12 colon
LOX IMVI melanoma = system: LOX IMVI melanoma
M14 melanoma = system: M14 melanoma
MALME-3M melanoma = system: MALME-3M melanoma
MCF7 breast = system: MCF7 breast
MDA-MB-231 breast = system: MDA-MB-231 breast
MDA-MB-435 = system: MDA-MB-435
MDA-N = system: MDA-N
MOLT-4 leukemia = system: MOLT-4 leukemia
NCI-H226 lung = system: NCI-H226 lung
NCI-H460 lung = system: NCI-H460 lung
NCI-H522 lung = system: NCI-H522 lung
NCI/ADR-RES ovarian = system: NCI/ADR-RES ovarian
OVCAR-3 ovarian = system: OVCAR-3 ovarian
OVCAR-4 ovarian = system: OVCAR-4 ovarian
OVCAR-5 ovarian = system: OVCAR-5 ovarian
OVCAR-8 ovarian = system: OVCAR-8 ovarian
PC-3 prostate = system: PC-3 prostate
RPMI-8226 leukemia = system: RPMI-8226 leukemia
RXF 393 renal = system: RXF 393 renal
SF-268 CNS = system: SF-268 CNS
SF-295 CNS = system: SF-295 CNS
SF-539 CNS = system: SF-539 CNS
SK-MEL-2 melanoma = system: SK-MEL-2 melanoma
SK-MEL-28 melanoma = system: SK-MEL-28 melanoma
SK-MEL-5 melanoma = system: SK-MEL-5 melanoma
SN12C renal = system: SN12C renal
SNB-19 CNS = system: SNB-19 CNS
SNB-75 CNS = system: SNB-75 CNS
SR leukemia = system: SR leukemia
SW-620 colon = system: SW-620 colon
TK-10 renal = system: TK-10 renal
U251 CNS = system: U251 CNS
UACC-257 melanoma = system: UACC-257 melanoma
UACC-62 melanoma = system: UACC-62 melanoma
UO-31 renal = system: UO-31 renal
HCT-116 colon = system: HCT-116 colon
HOP-62 NSCLC = system: HOP-62 NSCLC
HT29 colon = system: HT29 colon
NCI-H23 lung = system: NCI-H23 lung
SK-OV-3 ovarian = system: SK-OV-3 ovarian
T-47D breast = system: T-47D breast

Measured: TGI

Cc1cc(C)c2c(c1)CC1(Cc3c(C)cc(C)cc3C1=O)C2=O (stereo not given)
not listed: HCT-116 colon | HOP-62 NSCLC | HT29 colon | NCI-H23 lung | SK-OV-3 ovarian | T-47D breast
> 100 µM: all other assays above

O=C1C(=Cc2ccccc2[N+](=O)[O-])N=C(c2ccccc2)N1n1c(-c2ccccc2)nc2ccccc2c1=O
66.6 µM: RPMI-8226 leukemia
78.7 µM: OVCAR-8 ovarian
88.2 µM: SK-MEL-2 melanoma
78 µM: CCRF-CEM leukemia
52.4 µM: MCF7 breast
33.7 µM: HCT-116 colon
62.6 µM: NCI/ADR-RES ovarian | T-47D breast
86 µM: HS 578T breast
90.7 µM: UACC-257 melanoma
87.3 µM: SN12C renal
80.6 µM: PC-3 prostate
91.7 µM: MALME-3M melanoma
85.3 µM: NCI-H226 lung
70.4 µM: MOLT-4 leukemia
31.8 µM: NCI-H522 lung
99.1 µM: NCI-H460 lung
46.6 µM: UACC-62 melanoma
65 µM: NCI-H23 lung
68.5 µM: LOX IMVI melanoma
49.3 µM: HOP-92 NSCLC
66.2 µM: KM12 colon
56.2 µM: RXF 393 renal
not listed: A498 renal | HL-60(TB) leukemia
> 100 µM: all other assays above

From PubChem BioAssay (NCI)
